Assay results reported in patent US10143691B2, “Pathogenic control of apoptosis” (CSIR, priority 2014, dated 2018).
Entries after “also recorded” stand apart in the source; their conditions may differ.

Tested on: lincRNAp21
Test: lincRNA-p21 expression by RNA FISH spot counts and quantitative RT-PCR
Type: cell-based, human
Conditions: uninfected Ghost(3) cells, drug-treated, smFISH spot count and qRT-PCR
Procedure: RNA FISH on Ghost(3) cells was performed according to Raj, 2008 and on primary macrophages according to Schaffer, 2013. For both methods 48 20mer probes (Biosearch) targeted to human lincRNAp21 were synthesised baring a […] C6dT. The amino group was subsequently conjugated to the following NHSester dyes: ATTO565, ATTO647N (ATTOTEC) or Alexa Fluor 647 (Invitrogen). Briefly, oligonucleotide probes were ethanol precipitated and resuspended in 0.1 M sodium tetraborate (Sigma). Approximately 0.3 mg of the NHSester dye (ATTOTEC) was dissolved in dimethyl sulphoxide (Sigma). The dye solution was added to the probe solution and incubated overnight in the dark at 37° C. Following the conjugation reaction, the probes were ethanol precipitated overnight, and resuspended in 0.1 M triethyl ammonium (Sigma). Conjugated probes were separated and purified to enrich for dyeconjugated probes by reverse phase HPLC on a C18 column. […]
For each experiment, Ghost(3) cells or IPSO-derived primary macrophages were infected or treated with 500 nM Doxorubicin over time and total RNA was extracted from cells using TRIzol® (Life Technologies), treated with RQ1 RNase-free DNase (Promega) and reverse transcribed using SuperScript III Reverse Transcriptase (Life Technologies). Quantitative RTPCR was performed using Sso Fast EvaGreen™ supermix (BioRad) on a BioRad CFX96 real-time PCR detection system. […]

`COc1cccc2c1C(=O)c1c(O)c3c(c(O)c1C2=O)C[C@@](O)(C(=O)CO)C[C@@H]3O[C@H]1C[C@H](N)[C@H](O)[C@H](C)O1` [Doxorubicin] was tested, and the lincRNA-p21 expression was “enhanced; also recorded: significantly increases lincRNAp21 expression over time”.
